In patent US20080260682A1, “Polyethylene glycol colonic purgative composition” (Salix Pharmaceuticals, Inc., priority 2005, published 2008):

System: normal healthy subjects
Settings: in vivo
Protocol: In addition, the safety and tolerability of the PEG 8000 was evaluated.
This study was a double-blinded, randomized, crossover study with 16 healthy male subjects. Subjects were randomly assigned to one of two dosing sequences: Sequence A (n=9) or Sequence B (n=6). For each dosing sequence there were three scheduled visits: a screening visit (Visit 0) and two treatment visits (Visits 1 and 2). […] At the beginning of day 4, the standardized diet ended and subjects were given a low fiber breakfast followed by clear liquids for the rest of the day. On day 5, patients received nothing by mouth (NPO) after the administration of the test materials.
A baseline period measurement period began at 6 p.m. on day 2 and lasted 48 hours. During the baseline period, all bowel movements were collected, recorded, and assessed for consistency and weight. At 6 p.m. on day 4, the test article administration began. […] In both dosing sequences, Visit I was followed by a two-week washout period before subjects crossed over to begin visit 2. During the observation period of test article administration, all bowel movements were collected, recorded, and assessed for consistency and weight. The observation period of test article administration began when the test article was administered and continued until 11 a.m. on day 5.
Subjects drank another 5 doses in the same manner beginning at 6:00 a.m. on day 5.

## polyethylene glycol 8000 [PEG 8000]
  serious events, severe events, deaths: no serious events, no severe events, and no deaths
